Data as given in the NIST ThermoML archive (doi:10.1016/j.jct.2010.05.009).

Key:
[1] = refractive index (Na D-line) (dimensionless); xn = mol fraction of the nth substance listed; details: 101 kPa, Liquid, Standard Abbe refractometry
[2] = xn = mol fraction of the nth substance listed; details: 101 kPa, Liquid; for viscosity: Capillary tube (Ostwald / Ubbelohde) method; for mass density: Vibrating tube method

CCC(C)(C)O [2-methylbutan-2-ol] + C1CCOC1
Details	mass density, 288.15 K [kg/m3]	mass density, 298.15 K [kg/m3]	mass density, 308.15 K [kg/m3]	refractive index, 288.15 K	refractive index, 298.15 K	refractive index, 308.15 K	viscosity, 288.15 K [mPa·s]	viscosity, 298.15 K [mPa·s]	viscosity, 308.15 K [mPa·s]
[1], x1 = 0.1028	–	–	–	1.4076	1.4027	1.3979	–	–	–
[1], x1 = 0.1791	–	–	–	1.4069	1.4022	1.3974	–	–	–
[1], x1 = 0.2676	–	–	–	1.4065	1.4018	1.3972	–	–	–
[1], x1 = 0.3601	–	–	–	1.4064	1.4018	1.3971	–	–	–
[1], x1 = 0.45	–	–	–	1.4066	1.402	1.3972	–	–	–
[1], x1 = 0.5402	–	–	–	1.4068	1.4022	1.3974	–	–	–
[1], x1 = 0.6295	–	–	–	1.407	1.4023	1.3976	–	–	–
[1], x1 = 0.7058	–	–	–	1.4071	1.4024	1.3977	–	–	–
[1], x1 = 0.8097	–	–	–	1.4071	1.4024	1.3977	–	–	–
[1], x1 = 0.8903	–	–	–	1.4069	1.4022	1.3975	–	–	–
[1], x1 = 0.9629	–	–	–	1.4065	1.4018	1.3972	–	–	–
[1], x1 = 1	–	–	–	1.4062	1.4015	1.3968	–	–	–
[2], x1 = 0.1028	881.2	870.63	859.92	–	–	–	0.7142	0.5079	0.4359
[2], x1 = 0.1791	873.29	862.93	852.42	–	–	–	0.895	0.5724	0.4592
[2], x1 = 0.2676	865.01	854.87	844.57	–	–	–	1.13	0.6232	0.5449
[2], x1 = 0.3601	857.15	847.22	837.11	–	–	–	1.365	0.7532	0.6428
[2], x1 = 0.45	850.2	840.46	830.51	–	–	–	1.63	0.8859	0.747
[2], x1 = 0.5402	843.79	834.19	824.37	–	–	–	1.968	1.064	0.8887
[2], x1 = 0.6295	837.94	828.48	818.76	–	–	–	2.399	1.288	1.055
[2], x1 = 0.7058	833.16	823.78	814.12	–	–	–	2.849	1.548	1.232
[2], x1 = 0.8097	826.96	817.62	808.01	–	–	–	3.623	2.008	1.548
[2], x1 = 0.8903	821.89	812.56	802.98	–	–	–	4.381	2.517	1.907
[2], x1 = 0.9629	816.9	807.57	798.22	–	–	–	5.245	3.052	2.234
[2], x1 = 1	814.01	804.88	795.52	–	–	–	5.867	3.478	2.504

CCCN [propan-1-amine] + C1CCOC1
Details	mass density, [2] [kg/m3]	refractive index, [1]	viscosity, [2] [mPa·s]
288.15 K, x2 = 0	721.57	1.3899	0.3851
288.15 K, x2 = 0.0542	730.55	1.3908	0.3898
288.15 K, x2 = 0.1599	748.15	1.3927	0.3991
288.15 K, x2 = 0.1934	753.76	1.3933	0.4021
288.15 K, x2 = 0.3199	775.03	1.3956	0.4138
288.15 K, x2 = 0.4	788.58	1.397	0.4211
288.15 K, x2 = 0.4789	802.01	1.3985	0.4289
288.15 K, x2 = 0.56	815.87	1.4	0.4371
288.15 K, x2 = 0.6402	829.71	1.4015	0.4455
288.15 K, x2 = 0.7201	843.56	1.4031	0.4546
288.15 K, x2 = 0.8791	871.41	1.4062	0.4765
288.15 K, x2 = 0.9585	885.46	1.4078	0.4902
298.15 K, x2 = 0	711.08	1.3844	0.3585
298.15 K, x2 = 0.0542	719.96	1.3854	0.3632
298.15 K, x2 = 0.1599	737.23	1.3873	0.372
298.15 K, x2 = 0.1934	742.73	1.3879	0.3747
298.15 K, x2 = 0.3199	763.65	1.3902	0.3856
298.15 K, x2 = 0.4	777.02	1.3917	0.3926
298.15 K, x2 = 0.4789	790.28	1.3931	0.3996
298.15 K, x2 = 0.56	804.04	1.3947	0.4071
298.15 K, x2 = 0.6402	–	1.3965	–
298.15 K, x2 = 0.651	819.66	–	0.4149
298.15 K, x2 = 0.7201	831.66	1.3978	0.4229
298.15 K, x2 = 0.8791	859.85	1.4011	0.4396
298.15 K, x2 = 0.9585	874.29	1.4028	0.4489
308.15 K, x2 = 0	700.4	1.3784	0.3222
308.15 K, x2 = 0.0542	709.15	1.3793	0.3269
308.15 K, x2 = 0.1599	726.3	1.3812	0.3363
308.15 K, x2 = 0.1934	731.73	1.3818	0.3393
308.15 K, x2 = 0.3199	752.47	1.3842	0.3509
308.15 K, x2 = 0.4	765.73	1.3857	0.3584
308.15 K, x2 = 0.4789	778.88	1.3873	0.3659
308.15 K, x2 = 0.56	792.57	1.3889	0.3736
308.15 K, x2 = 0.6402	–	1.3906	–
308.15 K, x2 = 0.651	806.31	–	0.3813
308.15 K, x2 = 0.7201	820.22	1.3923	0.3891
308.15 K, x2 = 0.8791	848.66	1.3958	0.4049
308.15 K, x2 = 0.9585	863.3	1.3977	0.4129

CCCN [propan-1-amine] + CCC(C)(C)O
Details	mass density, 288.15 K [kg/m3]	mass density, 298.15 K [kg/m3]	mass density, 308.15 K [kg/m3]	refractive index, 288.15 K	refractive index, 298.15 K	refractive index, 308.15 K	viscosity, 288.15 K [mPa·s]	viscosity, 298.15 K [mPa·s]	viscosity, 308.15 K [mPa·s]
[1], x2 = 0	–	–	–	1.3899	1.3844	1.3784	–	–	–
[1], x2 = 0.0733	–	–	–	1.392	1.3868	1.3809	–	–	–
[1], x2 = 0.1528	–	–	–	1.3944	1.3893	1.3835	–	–	–
[1], x2 = 0.2327	–	–	–	1.3968	1.3917	1.386	–	–	–
[1], x2 = 0.3155	–	–	–	1.3989	1.394	1.3884	–	–	–
[1], x2 = 0.398	–	–	–	1.4009	1.3961	1.3906	–	–	–
[1], x2 = 0.4888	–	–	–	1.4028	1.398	1.3926	–	–	–
[1], x2 = 0.5804	–	–	–	1.4043	1.3996	1.3944	–	–	–
[1], x2 = 0.6697	–	–	–	1.4053	1.4005	1.3954	–	–	–
[1], x2 = 0.7769	–	–	–	1.4058	1.4012	1.3962	–	–	–
[1], x2 = 0.8741	–	–	–	1.406	1.4013	1.3964	–	–	–
[1], x2 = 0.9498	–	–	–	1.4061	1.4014	1.3966	–	–	–
[2], x2 = 0	721.57	711.08	700.4	–	–	–	0.3851	0.3585	0.3222
[2], x2 = 0.0733	731.65	721.43	710.97	–	–	–	0.4625	0.4161	0.3822
[2], x2 = 0.1528	742.12	732.03	721.79	–	–	–	0.5521	0.4813	0.4437
[2], x2 = 0.2327	752	742.1	732.07	–	–	–	0.6938	0.5258	0.501
[2], x2 = 0.3155	761.54	751.82	741.93	–	–	–	0.8513	0.6157	0.5725
[2], x2 = 0.398	770.38	760.84	751.09	–	–	–	1.041	0.7142	0.6756
[2], x2 = 0.4888	779.41	770.02	760.39	–	–	–	1.354	0.8835	0.8338
[2], x2 = 0.5804	787.76	778.45	768.97	–	–	–	1.827	1.129	1.03
[2], x2 = 0.6697	795.11	785.88	776.64	–	–	–	2.39	1.468	1.283
[2], x2 = 0.7769	802.69	793.82	784.6	–	–	–	3.288	1.974	1.664
[2], x2 = 0.8741	808.3	799.58	790.43	–	–	–	4.258	2.565	2.03
[2], x2 = 0.9498	811.88	803.1	793.93	–	–	–	5.17	3.068	2.304
